Results published in patent US10150737B2, “Compounds for controlling arthropods” (priority 2013, dated 2018).

Columns and labels:
[1] = tested on: Phaedon cochleariae; test: Phaedon cochleariae - spray test; format: in vivo; conditions: larvae on Chinese cabbage leaf discs, after 7 days
How it was run: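 Chinese cabbage leaf discs sprayed with compound formulated in acetone/DMF and water containing 1000 ppm emulsifier; once dry, infested with mustard beetle larvae. Efficacy (% larvae killed) scored after 7 days.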

[2] = tested on: Tetranychus urticae; test: Tetranychus urticae - spray test, OP-resistant; format: in vivo; conditions: bean leaf discs, after 6 days
How it was run: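 Compound dissolved in acetone/DMF, diluted with water containing 1000 ppm alkylaryl polyglycol ether emulsifier to test concentrations. Bean leaf discs infested with all stages of spider mites were sprayed; % kill determined after 6 days (100% = all mites dead, 0% = none).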

[3] = logP determination by HPLC on a reversed-phase column (C18); format: physicochemical; conditions: for logP^a): HPLC-MS method a); for log P: HPLC-MS
[4] = tested on: Ctenocephalides felis; test: Ctenocephalides felis - oral test; format: in vivo; conditions: application rate 100 ppm in citrated cattle blood; after 2 days
How it was run: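 Compound in DMSO diluted into citrated cattle blood, fed through a parafilm membrane to about 20 unfed adult cat fleas. Kill in % scored after 2 days (100% = all dead).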

[5] = tested on: Boophilus microplus; test: Boophilus microplus - injection test; format: in vivo; conditions: application rate 20 μg/animal, injection into engorged adult female ticks, after 7 days
How it was run: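 Active ingredient in DMSO, 1 μl injected into the abdomen of 5 engorged adult female ticks, then held in a climate-controlled room. Efficacy scored after 7 days from laying of fertile eggs, with non-fertile-looking eggs kept about 42 days for larval hatch; 100% means no fertile eggs.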

[6] = tested on: Musca domestica; test: Musca domestica test; format: in vivo; conditions: application rate 100 ppm; adult houseflies; after 2 days
How it was run: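 Percent kill of adult houseflies is recorded 2 days after exposure, where 100% denotes all flies dead and 0% none. Flies (10 per vessel) feed from a sponge carrying sugar solution and the aqueous-diluted DMSO formulation.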

[7] = tested on: Ctenocephalides felis; test: Ctenocephalides felis - in vitro contact tests with adult cat fleas; format: in vivo; conditions: application rate 5 μg/cm2 (=500 g/ha); after 48 h; fleas dead or moribund
Description: For the coating of the test tubes, 9 mg of active ingredient are first dissolved in 1 ml of acetone p.a. and then diluted to the desired concentration with acetone p.a. 250 μl of the solution are distributed homogeneously on the inner walls and base of a 25 ml test tube by turning and rocking on an orbital shaker (rocking rotation at 30 rpm for 2 h). With 900 ppm active ingredient solution and internal surface area 44.7 cm^2, given homogeneous distribution, an area-based dose of 5 μg/cm^2 is achieved.
After the solvent has evaporated off, the tubes are populated with 5-10 adult cat fleas (Ctenocephalides felis), sealed with a perforated plastic lid and incubated in a horizontal position at room temperature and ambient humidity. After 48 h, efficacy is determined. To this end, the test tubes are stood upright and the fleas are knocked to the base of the tube. Fleas which remain motionless at the base or move in an uncoordinated manner are considered to be dead or moribund.
100% efficacy means that all the fleas were dead or moribund. 0% efficacy means that no fleas were harmed.

[8] = tested on: Spodoptera frugiperda; test: Spodoptera frugiperda - spray test; format: in vivo; conditions: caterpillars on maize leaf discs, after 7 days
How it was run: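 Maize leaf discs sprayed with compound formulated in acetone/DMF and diluted in water containing 1000 ppm alkylaryl polyglycol ether emulsifier, then infested with armyworm caterpillars after drying. Efficacy scored after 7 days as % caterpillars killed (100% all, 0% none).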

[9] = tested on: Myzus persicae; test: Myzus persicae - spray test; format: in vivo; conditions: Chinese cabbage leaf discs, after 6 days
Description: Solvent: 78 parts by weight of acetone and 1.5 parts by weight of dimethylformamide
Emulsifier: alkylaryl polyglycol ether
To produce an appropriate active ingredient formulation, 1 part by weight of active ingredient is dissolved using the specified parts by weight of solvent and made up with water containing an emulsifier concentration of 1000 ppm until the desired concentration is attained. To produce further test concentrations, the preparation is diluted with emulsifier-containing water.
Discs of Chinese cabbage leaves (Brassica pekinensis) infested by all stages of the green peach aphid (Myzus persicae) are sprayed with an active ingredient formulation of the desired concentration.
After 6 days, efficacy in % is determined. 100% means that all the aphids have been killed; 0% means that none of the aphids have been killed.

[10] = tested on: Lucilia cuprina; test: Lucilia cuprina test; format: in vivo; conditions: application rate 100 ppm; L1 larvae; after 2 days
How it was run: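 About 20 L1 larvae placed on minced horsemeat treated with compound, formulated in DMSO and diluted with water to test concentration. Kill in % scored after 2 days (100% = all larvae dead, 0% = none).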

[11] = tested on: Boophilus microplus Parkhurst strain, SP-resistant; test: Boophilus microplus - dip test; format: in vivo; conditions: application rate 100 ppm; dip of engorged adult female ticks; after 7 days
Description: Test animals: cattle ticks (Boophilus microplus) Parkhurst strain, SP-resistant
Solvent: dimethyl sulphoxide
10 mg of active ingredient are dissolved in 0.5 ml of dimethyl sulphoxide. For the purpose of producing a suitable formulation, the active ingredient solution is diluted with water to the concentration desired in each case.
This active ingredient formulation is pipetted into tubes. 8-10 adult engorged female cattle ticks (Boophilus microplus) are transferred into a further tube with holes. The tube is immersed into the active ingredient formulation, and all the ticks are completely wetted. After the liquid has run out, the ticks are transferred on filter discs into plastic dishes and stored in a climate-controlled room.
Efficacy is assessed after 7 days by laying of fertile eggs. Eggs which are not visibly fertile are stored in a climate-controlled cabinet until the larvae hatch after about 42 days. An efficacy of 100% means that none of the ticks has laid any fertile eggs; 0% means that all the eggs are fertile.

[12] = reversed-phase column (C18), Table I-T3

Cc1cc(C(F)(C(F)(F)F)C(F)(F)F)cc(C)c1-n1cc(-c2cncc(C(=O)NC3CC3)c2)cn1 [I-T3-7]
efficacy ([1]; application rate 500 g/ha): 100%
efficacy ([2]; application rate 500 g/ha): 100%
logP^a) [3]: 3.4
logP^a) [3, 12]: 3.4
efficacy (kill) [4]: 100%
efficacy (laying of fertile eggs) [5]: 100%
efficacy (kill) [6]: 80%
efficacy [7]: 100%
efficacy ([8]; application rate 500 g/ha): 100%
efficacy ([9]; application rate 500 g/ha): 100%
efficacy (kill) [10]: 100%

Cc1cc(C(F)(C(F)(F)F)C(F)(F)F)cc(C)c1-n1cc(-c2cccc(C(=O)NC3CC3)c2)cn1 [I-T3-29]
efficacy ([1]; application rate 500 g/ha): 100%
efficacy ([2]; application rate 500 g/ha): 100%
logP^a) [3]: 3.3
logP^a) [3, 12]: 3.3
efficacy (kill) [4]: 100%
efficacy (laying of fertile eggs) [5]: 100%
efficacy (kill) [6]: 100%
efficacy [7]: 100%
efficacy ([8]; application rate 500 g/ha): 100%
efficacy ([9]; application rate 500 g/ha): 90%
efficacy (kill) [10]: 100%

CCc1cc(C(F)(C(F)(F)F)C(F)(F)F)ccc1-n1cc(-c2ccc(Cl)c(C(=O)NC3CC3)c2)cn1 [I-T3-39]
efficacy ([1]; application rate 100 g/ha): 100%
efficacy ([2]; application rate 100 g/ha): 100%
logP^a) [3]: 4.6
logP^a) [3, 12]: 4.6
efficacy (kill) [4]: 100%
efficacy (laying of fertile eggs) [5]: 100%
efficacy ([8]; application rate 100 g/ha): 100%
efficacy ([9]; application rate 100 g/ha): 90%
efficacy (kill) [10]: 100%
efficacy (laying of fertile eggs) [11]: 100%

O=C(NC1CC1)c1cc(-c2cnn(-c3c(F)cc(C(F)(F)F)cc3F)c2)ccc1Cl [I-T3-48, 2-chloro-N-cyclopropyl-5-[1-[2,6-difluoro-4-(trifluoromethyl)phenyl]pyrazol-4-yl]benzamide]
pest or weed control at 0.02 mg ([5]; Rhipicephalus microplus, 168 h, read-out: efficacy (laying of fertile eggs)): 100%
efficacy (kill) [6]: 100%
efficacy (laying of fertile eggs) [11]: 100%

CCc1cc(C(F)(C(F)(F)F)C(F)(F)F)cc(C)c1-n1cc(-c2cncc(C(=O)NC3(C#N)CC3)c2)cn1 [I-T3-76]
efficacy ([1]; application rate 500 g/ha): 100%
efficacy ([2]; application rate 500 g/ha): 100%
logP^a) [3]: 3.4
logP^a) [3, 12]: 3.4
efficacy (kill) [4]: 100%
efficacy (laying of fertile eggs) [5]: 100%
efficacy (kill) [6]: 90%
efficacy ([8]; application rate 500 g/ha): 100%
efficacy ([9]; application rate 100 g/ha): 90%
efficacy (kill) [10]: 90%

CCc1cc(C(F)(C(F)(F)F)C(F)(F)F)cc(C)c1-n1cc(-c2cncc(C(=O)NC3CC3)c2)cn1 [I-T3-77]
efficacy ([1]; application rate 500 g/ha): 100%
efficacy ([2]; application rate 500 g/ha): 100%
logP^a) [3]: 3.4
logP^a) [3, 12]: 3.4
efficacy (kill) [4]: 100%
efficacy (laying of fertile eggs) [5]: 100%
efficacy (kill) [6]: 100%
efficacy ([8]; application rate 500 g/ha): 100%
efficacy ([9]; application rate 100 g/ha): 100%
efficacy (kill) [10]: 100%

Cc1cc(C(F)(C(F)(F)F)C(F)(F)F)cc(C(F)(F)F)c1-n1cc(-c2ccc(Cl)c(C(=O)NC3CSC3)c2)cn1 [I-T3-85]
efficacy ([1]; application rate 100 g/ha): 100%
efficacy ([2]; application rate 100 g/ha): 100%
logP^a) [3]: 4.7
logP^a) [3, 12]: 4.7
efficacy (kill) [4]: 100%
efficacy (laying of fertile eggs) [5]: 100%
efficacy (kill) [6]: 100%
efficacy [7]: 100%
efficacy ([8]; application rate 100 g/ha): 100%
efficacy ([9]; application rate 100 g/ha): 90%
efficacy (kill) [10]: 100%

N#CC1(NC(=O)c2cc(-c3cnn(-c4c(Cl)cc(OC(F)(F)F)cc4Cl)c3)ccc2Cl)CC1 [I-T3-87]
efficacy ([1]; application rate 100 g/ha): 100%
efficacy ([2]; application rate 100 g/ha): 100%
logP^a) [3]: 3.6
logP^a) [3, 12]: 3.6
efficacy (kill) [4]: 100%
efficacy (laying of fertile eggs) [5]: 100%
efficacy (kill) [6]: 100%
efficacy [7]: 100%
efficacy ([8]; application rate 100 g/ha): 100%
efficacy ([9]; application rate 100 g/ha): 90%
efficacy (kill) [10]: 100%

Cc1ncc(-c2cnn(-c3c(Cl)cc(C(F)(F)F)cc3Cl)c2)cc1C(=O)NC1CC1 [I-T3-127]
efficacy ([1]; application rate 100 g/ha): 100%
efficacy ([2]; application rate 100 g/ha): 100%
logP^a) ([3]; reversed-phase column (C18)): 2.5
log P [3, 12]: 2.5
efficacy (kill) [4]: 100%
efficacy (laying of fertile eggs) [5]: 100%
efficacy [7]: 100%
efficacy ([9]; application rate 100 g/ha): 100%
efficacy (kill) [10]: 90%

Cc1ncc(-c2cnn(-c3c(Cl)cc(C(F)(F)F)cc3Cl)c2)cc1C(=O)N(C)C1CC1 [I-T3-128]
efficacy ([1]; application rate 100 g/ha): 100%
logP^a) ([3]; reversed-phase column (C18)): 2.8
log P [3, 12]: 2.8
efficacy (kill) [4]: 100%
efficacy (laying of fertile eggs) [5]: 100%
efficacy [7]: 100%
efficacy ([9]; application rate 100 g/ha): 100%

Cc1ncc(-c2cnn(-c3c(Cl)cc(C(F)(F)F)cc3Cl)c2)cc1C(=O)NC1(C#N)CC1 [I-T3-129]
efficacy ([1]; application rate 100 g/ha): 100%
efficacy ([2]; application rate 100 g/ha): 100%
logP^a) ([3]; reversed-phase column (C18)): 2.6
log P [3, 12]: 2.6
efficacy (kill) [4]: 100%
efficacy (laying of fertile eggs) [5]: 100%
efficacy (kill) [6]: 80%
efficacy [7]: 100%
efficacy ([9]; application rate 100 g/ha): 100%

Cc1ncc(-c2cnn(-c3c(Cl)cc(C(F)(F)F)cc3Cl)c2)cc1C(=O)N(C)C1(C#N)CC1 [I-T3-132]
efficacy ([1]; application rate 100 g/ha): 100%
efficacy ([2]; application rate 100 g/ha): 100%
logP^a) ([3]; reversed-phase column (C18)): 2.9
log P [3, 12]: 2.9
efficacy (kill) [4]: 100%
efficacy (laying of fertile eggs) [5]: 100%
efficacy [7]: 100%
efficacy ([9]; application rate 100 g/ha): 90%

Cc1ncc(-c2cnn(-c3c(Cl)cc(C(F)(C(F)(F)F)C(F)(F)F)cc3Cl)c2)cc1C(=O)N(C)C1CC1 [I-T3-133]
efficacy ([1]; application rate 100 g/ha): 100%
efficacy ([2]; application rate 100 g/ha): 100%
logP^a) ([3]; reversed-phase column (C18)): 3.7
log P [3, 12]: 3.7
efficacy (kill) [4]: 100%
efficacy (laying of fertile eggs) [5]: 100%
efficacy (kill) [6]: 100%
efficacy [7]: 100%
efficacy ([8]; application rate 100 g/ha): 100%
efficacy (kill) [10]: 100%
efficacy (laying of fertile eggs) [11]: 100%

CCN(C(=O)c1cc(-c2cnn(-c3c(Cl)cc(C(F)(F)F)cc3Cl)c2)cnc1Cl)C1CC1 [I-T3-145]
efficacy ([1]; application rate 100 g/ha): 100%
efficacy ([2]; application rate 100 g/ha): 100%
logP^a) ([3]; reversed-phase column (C18)): 3.8
log P [3, 12]: 3.8
efficacy (kill) [4]: 100%
efficacy (laying of fertile eggs) [5]: 100%
efficacy (kill) [6]: 90%
efficacy [7]: 100%
efficacy ([8]; application rate 100 g/ha): 100%
efficacy ([9]; application rate 100 g/ha): 90%
efficacy (kill) [10]: 100%
